According to PubChem BioAssay (NCI):
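A five-concentration, 48-hour dose response in 96-well plates underlies each endpoint, interpolated linearly between surrounding concentrations. The concentration for 50% growth inhibition is given as GI50. The concentration for full growth arrest is given as TGI.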

Columns and labels:
Test in all cases: NCI-60 cell line screen, 48 h
786-0 renal = test system: 786-0 renal
A498 renal = test system: A498 renal
A549 NSCLC = test system: A549 NSCLC
ACHN renal = test system: ACHN renal
BT-549 breast = test system: BT-549 breast
CAKI-1 renal = test system: CAKI-1 renal
CCRF-CEM leukemia = test system: CCRF-CEM leukemia
COLO 205 colon = test system: COLO 205 colon
DU-145 prostate = test system: DU-145 prostate
EKVX NSCLC = test system: EKVX NSCLC
HCC-2998 colon = test system: HCC-2998 colon
HCT-116 colon = test system: HCT-116 colon
HCT-15 colon = test system: HCT-15 colon
HL-60(TB) leukemia = test system: HL-60(TB) leukemia
HOP-62 NSCLC = test system: HOP-62 NSCLC
HOP-92 NSCLC = test system: HOP-92 NSCLC
HS 578T breast = test system: HS 578T breast
HT29 colon = test system: HT29 colon
IGROV1 ovarian = test system: IGROV1 ovarian
K-562 leukemia = test system: K-562 leukemia
KM12 colon = test system: KM12 colon
LOX IMVI melanoma = test system: LOX IMVI melanoma
M14 melanoma = test system: M14 melanoma
MALME-3M melanoma = test system: MALME-3M melanoma
MCF7 breast = test system: MCF7 breast
MDA-MB-231 breast = test system: MDA-MB-231 breast
MDA-MB-435 = test system: MDA-MB-435
MDA-N = test system: MDA-N
MOLT-4 leukemia = test system: MOLT-4 leukemia
NCI-H226 lung = test system: NCI-H226 lung
NCI-H23 lung = test system: NCI-H23 lung
NCI-H460 lung = test system: NCI-H460 lung
NCI-H522 lung = test system: NCI-H522 lung
OVCAR-3 ovarian = test system: OVCAR-3 ovarian
OVCAR-4 ovarian = test system: OVCAR-4 ovarian
OVCAR-5 ovarian = test system: OVCAR-5 ovarian
OVCAR-8 ovarian = test system: OVCAR-8 ovarian
PC-3 prostate = test system: PC-3 prostate
RPMI-8226 leukemia = test system: RPMI-8226 leukemia
RXF 393 renal = test system: RXF 393 renal
SF-268 CNS = test system: SF-268 CNS
SF-295 CNS = test system: SF-295 CNS
SF-539 CNS = test system: SF-539 CNS
SK-MEL-2 melanoma = test system: SK-MEL-2 melanoma
SK-MEL-28 melanoma = test system: SK-MEL-28 melanoma
SK-MEL-5 melanoma = test system: SK-MEL-5 melanoma
SK-OV-3 ovarian = test system: SK-OV-3 ovarian
SN12C renal = test system: SN12C renal
SNB-19 CNS = test system: SNB-19 CNS
SNB-75 CNS = test system: SNB-75 CNS
SR leukemia = test system: SR leukemia
SW-620 colon = test system: SW-620 colon
T-47D breast = test system: T-47D breast
TK-10 renal = test system: TK-10 renal
U251 CNS = test system: U251 CNS
UACC-257 melanoma = test system: UACC-257 melanoma
UACC-62 melanoma = test system: UACC-62 melanoma

In the case of `CC(=O)OCc1cnc2c3c(nc4ccccc4c13)C(=O)c1cccnc1-2`, the GI50 (786-0 renal) is reported as < 10 nM, the TGI (786-0 renal) is reported as 30.5 nM and the GI50 (A498 renal) is reported as 162 nM. For the same compound, the TGI (A498 renal) was 790 nM, the GI50 (A549 NSCLC) was 58.6 nM and the TGI (A549 NSCLC) was 14900 nM. For the same compound, the GI50 (ACHN renal) was < 10 nM, the GI50 (BT-549 breast) was 150 nM and the TGI (BT-549 breast) was 1760 nM. The GI50 (CAKI-1 renal) was < 10 nM, the TGI (CAKI-1 renal) was 150 nM and the GI50 (CCRF-CEM leukemia) was 25.1 nM. The GI50 (COLO 205 colon) was 321 nM, the TGI (COLO 205 colon) was 1010 nM and the GI50 (DU-145 prostate) was < 18.7 nM. For the same compound, the TGI (DU-145 prostate) was 147 nM, the GI50 (EKVX NSCLC) was 187 nM and the TGI (EKVX NSCLC) was 2600 nM. For the same compound, the GI50 (HCC-2998 colon) was 102 nM, the TGI (HCC-2998 colon) was 535 nM and the GI50 (HCT-116 colon) was < 10 nM. The TGI (HCT-116 colon) was 27 nM, the GI50 (HCT-15 colon) was < 10 nM and the TGI (HCT-15 colon) was 127 nM. For the same compound, the GI50 (HL-60(TB) leukemia) was 20.6 nM, the GI50 (HOP-62 NSCLC) was 27 nM and the TGI (HOP-62 NSCLC) was 163 nM. It also gave a GI50 (HOP-92 NSCLC) of 104 nM, a TGI (HOP-92 NSCLC) of 2770 nM and a GI50 (HS 578T breast) of 271 nM. For the same compound, the TGI (HS 578T breast) was 1330 nM, the GI50 (HT29 colon) was 193 nM and the TGI (HT29 colon) was 634 nM. The GI50 (IGROV1 ovarian) was 124 nM, the TGI (IGROV1 ovarian) was 1890 nM and the GI50 (K-562 leukemia) was 47.8 nM. For the same compound, the GI50 (KM12 colon) was 167 nM, the TGI (KM12 colon) was 504 nM and the GI50 (LOX IMVI melanoma) was < 10 nM. It also gave a TGI (LOX IMVI melanoma) of 51.7 nM, a GI50 (M14 melanoma) of 25.5 nM and a TGI (M14 melanoma) of 125 nM. For the same compound, the GI50 (MALME-3M melanoma) was 22 nM, the TGI (MALME-3M melanoma) was 205 nM and the GI50 (MCF7 breast) was < 11.8 nM. It also gave a TGI (MCF7 breast) of 90.4 nM, a GI50 (MDA-MB-231 breast) of 131 nM and a TGI (MDA-MB-231 breast) of 647 nM. The GI50 (MDA-MB-435) was 120 nM, the TGI (MDA-MB-435) was 527 nM and the GI50 (MDA-N) was 110 nM. For the same compound, the TGI (MDA-N) was 366 nM, the GI50 (MOLT-4 leukemia) was 290 nM and the TGI (MOLT-4 leukemia) was > 20500 nM. For the same compound, the GI50 (NCI-H226 lung) was < 15 nM, the TGI (NCI-H226 lung) was 121 nM and the GI50 (NCI-H23 lung) was 118 nM. It also gave a TGI (NCI-H23 lung) of 612 nM, a GI50 (NCI-H460 lung) of 18.6 nM and a TGI (NCI-H460 lung) of 147 nM. It also gave a GI50 (NCI-H522 lung) of 43.4 nM, a TGI (NCI-H522 lung) of 330 nM and a GI50 (OVCAR-3 ovarian) of 30 nM. It also gave a GI50 (OVCAR-4 ovarian) of 32.9 nM, a TGI (OVCAR-4 ovarian) of 390 nM and a GI50 (OVCAR-5 ovarian) of 435 nM. For the same compound, the TGI (OVCAR-5 ovarian) was 2230 nM, the GI50 (OVCAR-8 ovarian) was 11.5 nM and the TGI (OVCAR-8 ovarian) was 109 nM. The GI50 (PC-3 prostate) was 133 nM, the TGI (PC-3 prostate) was 2420 nM and the GI50 (RPMI-8226 leukemia) was 168 nM. For the same compound, the TGI (RPMI-8226 leukemia) was 983 nM, the GI50 (RXF 393 renal) was < 34.3 nM and the TGI (RXF 393 renal) was 841 nM. The GI50 (SF-268 CNS) was 34.1 nM, the TGI (SF-268 CNS) was 1010 nM and the GI50 (SF-295 CNS) was 172 nM. For the same compound, the TGI (SF-295 CNS) was 751 nM, the GI50 (SF-539 CNS) was < 13.1 nM and the TGI (SF-539 CNS) was 82 nM. The GI50 (SK-MEL-2 melanoma) was 482 nM, the TGI (SK-MEL-2 melanoma) was 1960 nM and the GI50 (SK-MEL-28 melanoma) was 174 nM. For the same compound, the TGI (SK-MEL-28 melanoma) was 614 nM, the GI50 (SK-MEL-5 melanoma) was 37.3 nM and the TGI (SK-MEL-5 melanoma) was 106 nM. The GI50 (SK-OV-3 ovarian) was 50 nM, the TGI (SK-OV-3 ovarian) was 874 nM and the GI50 (SN12C renal) was 22.1 nM. It also gave a TGI (SN12C renal) of 318 nM, a GI50 (SNB-19 CNS) of 42.4 nM and a TGI (SNB-19 CNS) of 959 nM. For the same compound, the GI50 (SNB-75 CNS) was 68.3 nM, the TGI (SNB-75 CNS) was 414 nM and the GI50 (SR leukemia) was < 10 nM. For the same compound, the TGI (SR leukemia) was > 100000 nM, the GI50 (SW-620 colon) was < 11.3 nM and the TGI (SW-620 colon) was 500 nM. It also gave a GI50 (T-47D breast) of 827 nM, a TGI (T-47D breast) of 10500 nM and a GI50 (TK-10 renal) of 57.3 nM. It also gave a TGI (TK-10 renal) of 420 nM, a GI50 (U251 CNS) of 23.7 nM and a GI50 (UACC-257 melanoma) of 253 nM. For the same compound, the TGI (UACC-257 melanoma) was 849 nM, the GI50 (UACC-62 melanoma) was 135 nM and the TGI (UACC-62 melanoma) was 403 nM.
